Measured values from ChEMBL document CHEMBL1128973, “Potent matrix metalloproteinase inhibitors: Amino-carboxylate compounds containing modifications of the P1 residue” (Bioorg Med Chem Lett, 1996).

Biological target: Stromelysin-1 (Homo sapiens, UniProt P08254)
Test: Inhibitory activity against Matrix metalloprotease-3

Stromelysin-1, sequence (P08254 whole entry): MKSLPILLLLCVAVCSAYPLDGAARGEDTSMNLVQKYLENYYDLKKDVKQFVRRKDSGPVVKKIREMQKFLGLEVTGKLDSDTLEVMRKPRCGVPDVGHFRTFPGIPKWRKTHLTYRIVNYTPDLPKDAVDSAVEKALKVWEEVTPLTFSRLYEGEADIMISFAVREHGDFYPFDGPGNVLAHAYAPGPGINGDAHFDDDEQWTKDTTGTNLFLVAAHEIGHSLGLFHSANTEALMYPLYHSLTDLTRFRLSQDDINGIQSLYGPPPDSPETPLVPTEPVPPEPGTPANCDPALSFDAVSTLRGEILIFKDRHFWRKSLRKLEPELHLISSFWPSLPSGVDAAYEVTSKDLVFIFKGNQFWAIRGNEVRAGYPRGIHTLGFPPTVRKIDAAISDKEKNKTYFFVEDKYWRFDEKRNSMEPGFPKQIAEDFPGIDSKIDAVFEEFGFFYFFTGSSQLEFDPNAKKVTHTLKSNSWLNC

Row | Structure (SMILES) | IC50
1 | COc1ccc(S(=O)(=O)NCC[C@H](N[C@@H](CCc2ccccc2)C(=O)N[C@@H](CC(C)C)C(=O)NOCc2ccccc2)C(=O)O)cc1 | 0.55 µM
2 | Cc1ccc(S(=O)(=O)NCC[C@H](N[C@@H](CCc2ccccc2)C(=O)N[C@@H](CC(C)C)C(=O)Nc2ccccc2)C(=O)O)cc1 | 0.05 µM
3 | COc1ccc(S(=O)(=O)NCC[C@H](N[C@@H](CCc2ccccc2)C(=O)N[C@@H](CC(C)C)C(=O)Nc2ccccc2)C(=O)O)cc1 | 0.05 µM
4 | CCOC(=O)N1CCN(C(=O)[C@H](CCc2ccccc2)N[C@@H](CCNS(=O)(=O)c2ccc(OC)cc2)C(=O)O)CC1 | > 20 µM
5 | CNC(=O)[C@H](Cc1ccccc1)NC(=O)[C@H](CCc1ccccc1)N[C@@H](CCN1C(=O)NC2(CCCC2)C1=O)C(=O)O | 1.9 µM
6 | CNC(=O)[C@H](Cc1ccccc1)NC(=O)[C@H](CCc1ccccc1)N[C@@H](CCNS(=O)(=O)c1ccc2ccccc2c1)C(=O)O | 0.51 µM
7 | COc1ccc(S(=O)(=O)NCC[C@H](N[C@@H](CCc2ccccc2)C(=O)N2CCC(O)CC2)C(=O)O)cc1 | > 20 µM
8 | CNC(=O)[C@H](Cc1ccccc1)NC(=O)[C@H](CCc1ccccc1)N[C@@H](CCNS(=O)(=O)c1ccc(C)cc1)C(=O)O | 0.12 µM
9 | CNC(=O)c1ccc(CNC(=O)[C@H](CCc2ccccc2)N[C@@H](CCNS(=O)(=O)c2ccc(OC)cc2)C(=O)O)cc1 | 18 µM
10 | COc1ccc(S(=O)(=O)NCC[C@H](N[C@@H](CCc2ccccc2)C(=O)N2CCN(S(C)(=O)=O)CC2)C(=O)O)cc1 | > 20 µM
11 | COc1ccc(S(=O)(=O)NCC[C@H](N[C@@H](CCc2ccccc2)C(=O)NCc2ccc(C(=O)O)cc2)C(=O)O)cc1 | 14 µM
12 | CNC(=O)[C@H](Cc1ccccc1)NC(=O)[C@H](CCc1ccccc1)N[C@@H](CCNC(=O)c1cc2ccccc2[nH]1)C(=O)O | 1.1 µM
13 | CCOC(=O)N1CCC(NC(=O)[C@H](CCc2ccccc2)N[C@@H](CCNS(=O)(=O)c2ccc(OC)cc2)C(=O)O)CC1 | > 20 µM
14 | COc1ccc(S(=O)(=O)NCC[C@H](N[C@@H](CCc2ccccc2)C(=O)N2CCOCC2)C(=O)O)cc1 | > 20 µM
